Data from the supplement of paper PMC10307832.

Assays:
Assay in all cases: relative viability (nuclei count vs DMSO), 5 days (fraction); higher = more cells survive
COR-L23 = tested on: COR-L23
Method in brief: (§1)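 Relative viability equals treated-well nuclei counts divided by vehicle-well nuclei counts. Counts came from 4× images of lung cancer cell lines grown in 1536-well plates for 5 days after pin-tool dosing on the day after seeding. Dosing used one drug alone or a fixed anchor-drug dose plus five library-drug doses (not always all listed) in √10 steps, and values are medians of duplicate plates.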

ChaGo-K-1 = tested on: ChaGo-K-1
Method in brief: as §1

EPLC-272H = tested on: EPLC-272H
Method in brief: as §1

H3255 = tested on: H3255
Method in brief: as §1

HARA = tested on: HARA
Method in brief: as §1

HCC-78 = tested on: HCC-78
Method in brief: as §1

HOP-62 = tested on: HOP-62
Method in brief: as §1

LCLC-97TM1 = tested on: LCLC-97TM1
Method in brief: as §1

LXF-289 = tested on: LXF-289
Method in brief: as §1

NCI-H1395 = tested on: NCI-H1395
Method in brief: as §1

NCI-H1437 = tested on: NCI-H1437
Method in brief: as §1

NCI-H1650 = tested on: NCI-H1650
Method in brief: as §1

NCI-H1666 = tested on: NCI-H1666
Method in brief: as §1

NCI-H1793 = tested on: NCI-H1793
Method in brief: as §1

NCI-H1944 = tested on: NCI-H1944
Method in brief: as §1

NCI-H2085 = tested on: NCI-H2085
Method in brief: as §1

NCI-H2087 = tested on: NCI-H2087
Method in brief: as §1

NCI-H2126 = tested on: NCI-H2126
Method in brief: as §1

NCI-H3122 = tested on: NCI-H3122
Method in brief: as §1

NCI-H441 = tested on: NCI-H441
Method in brief: as §1

NCI-H596 = tested on: NCI-H596
Method in brief: as §1

NCI-H661 = tested on: NCI-H661
Method in brief: as §1

PC-14 = tested on: PC-14
Method in brief: as §1

Compound `Cc1csc(=NC2CCCCC2)n1/N=C/c1ccc(O)c(O)c1O` [MIM1] + COc1cc2c(Oc3ccc(NC(=O)C4(C(=O)Nc5ccc(F)cc5)CC4)cc3F)ccnc2cc1OCCCN1CCOCC1 [Foretinib] (partner 0.25 µM) has a relative viability (COR-L23; first compound 0.2 µM) of 0.992, a relative viability (COR-L23; first compound 0.6325 µM) of 0.935 and a relative viability (COR-L23; first compound 2 µM) of 0.839. The relative viability (COR-L23; first compound 6.325 µM) was 0.802, the relative viability (COR-L23; first compound 20 µM) was 0.547 and the relative viability (ChaGo-K-1; first compound 0.2 µM) was 0.973. For the same compound, the relative viability (ChaGo-K-1; first compound 0.6325 µM) was 1, the relative viability (ChaGo-K-1; first compound 2 µM) was 0.774 and the relative viability (ChaGo-K-1; first compound 6.325 µM) was 0.771. For the same compound, the relative viability (ChaGo-K-1; first compound 20 µM) was 0.282, the relative viability (EPLC-272H; first compound 0.2 µM) was 0.779 and the relative viability (EPLC-272H; first compound 0.6325 µM) was 0.724. It also gave a relative viability (EPLC-272H; first compound 2 µM) of 0.622, a relative viability (EPLC-272H; first compound 6.325 µM) of 0.159 and a relative viability (EPLC-272H; first compound 20 µM) of 0.12. For the same compound, the relative viability (H3255; first compound 0.2 µM) was 0.945, the relative viability (H3255; first compound 0.6325 µM) was 0.715 and the relative viability (H3255; first compound 2 µM) was 0.743. The relative viability (H3255; first compound 6.325 µM) was 0.724, the relative viability (H3255; first compound 20 µM) was 0.307 and the relative viability (HARA; first compound 0.2 µM) was 0.954. The relative viability (HARA; first compound 2 µM) was 0.991, the relative viability (HARA; first compound 6.325 µM) was 0.868 and the relative viability (HARA; first compound 20 µM) was 0.131. For the same compound, the relative viability (HCC-78; first compound 0.2 µM) was 0.558, the relative viability (HCC-78; first compound 0.6325 µM) was 0.563 and the relative viability (HCC-78; first compound 2 µM) was 0.539. It also gave a relative viability (HCC-78; first compound 6.325 µM) of 0.553, a relative viability (HCC-78; first compound 20 µM) of 0.911 and a relative viability (HOP-62; first compound 0.2 µM) of 1.14. It also gave a relative viability (HOP-62; first compound 0.6325 µM) of 1.1, a relative viability (HOP-62; first compound 2 µM) of 0.986 and a relative viability (HOP-62; first compound 6.325 µM) of 0.94. The relative viability (HOP-62; first compound 20 µM) was 0.278, the relative viability (LCLC-97TM1; first compound 0.2 µM) was 0.92 and the relative viability (LCLC-97TM1; first compound 0.6325 µM) was 1.08. For the same compound, the relative viability (LCLC-97TM1; first compound 2 µM) was 0.888, the relative viability (LCLC-97TM1; first compound 6.325 µM) was 0.611 and the relative viability (LCLC-97TM1; first compound 20 µM) was 0.259. It also gave a relative viability (LXF-289; first compound 0.2 µM) of 1.02, a relative viability (LXF-289; first compound 0.6325 µM) of 0.9 and a relative viability (LXF-289; first compound 2 µM) of 1.03. For the same compound, the relative viability (LXF-289; first compound 6.325 µM) was 0.789, the relative viability (LXF-289; first compound 20 µM) was 0.721 and the relative viability (NCI-H1395; first compound 0.2 µM) was 1.03. For the same compound, the relative viability (NCI-H1395; first compound 0.6325 µM) was 0.975, the relative viability (NCI-H1395; first compound 2 µM) was 0.905 and the relative viability (NCI-H1395; first compound 6.325 µM) was 0.917. It also gave a relative viability (NCI-H1395; first compound 20 µM) of 0.388, a relative viability (NCI-H1437; first compound 0.2 µM) of 1.24 and a relative viability (NCI-H1437; first compound 0.6325 µM) of 1.34. For the same compound, the relative viability (NCI-H1437; first compound 2 µM) was 1.19, the relative viability (NCI-H1437; first compound 6.325 µM) was 1.1 and the relative viability (NCI-H1437; first compound 20 µM) was 0.243. It also gave a relative viability (NCI-H1650; first compound 0.2 µM) of 1.16, a relative viability (NCI-H1650; first compound 0.6325 µM) of 1.12 and a relative viability (NCI-H1650; first compound 2 µM) of 0.832. It also gave a relative viability (NCI-H1650; first compound 6.325 µM) of 0.265, a relative viability (NCI-H1650; first compound 20 µM) of 0.142 and a relative viability (NCI-H1666; first compound 0.2 µM) of 0.943. The relative viability (NCI-H1666; first compound 0.6325 µM) was 0.962, the relative viability (NCI-H1666; first compound 2 µM) was 1 and the relative viability (NCI-H1666; first compound 6.325 µM) was 0.724. It also gave a relative viability (NCI-H1666; first compound 20 µM) of 0.597, a relative viability (NCI-H1793; first compound 0.2 µM) of 0.793 and a relative viability (NCI-H1793; first compound 2 µM) of 0.735. It also gave a relative viability (NCI-H1793; first compound 6.325 µM) of 0.686, a relative viability (NCI-H1793; first compound 20 µM) of 1.01 and a relative viability (NCI-H1944; first compound 0.2 µM) of 0.908. For the same compound, the relative viability (NCI-H1944; first compound 0.6325 µM) was 0.93, the relative viability (NCI-H1944; first compound 2 µM) was 0.581 and the relative viability (NCI-H1944; first compound 6.325 µM) was 0.709. It also gave a relative viability (NCI-H1944; first compound 20 µM) of 0.564, a relative viability (NCI-H2085; first compound 0.2 µM) of 0.895 and a relative viability (NCI-H2085; first compound 0.6325 µM) of 1.11. For the same compound, the relative viability (NCI-H2085; first compound 2 µM) was 1.13, the relative viability (NCI-H2085; first compound 6.325 µM) was 0.935 and the relative viability (NCI-H2085; first compound 20 µM) was 0.843. For the same compound, the relative viability (NCI-H2087; first compound 0.2 µM) was 1.04, the relative viability (NCI-H2087; first compound 0.6325 µM) was 1.31 and the relative viability (NCI-H2087; first compound 2 µM) was 1.18. It also gave a relative viability (NCI-H2087; first compound 6.325 µM) of 0.813, a relative viability (NCI-H2087; first compound 20 µM) of 0.847 and a relative viability (NCI-H2126; first compound 0.2 µM) of 1.14. It also gave a relative viability (NCI-H2126; first compound 0.6325 µM) of 1.17, a relative viability (NCI-H2126; first compound 2 µM) of 1.35 and a relative viability (NCI-H2126; first compound 6.325 µM) of 1.12. The relative viability (NCI-H2126; first compound 20 µM) was 0.491, the relative viability (NCI-H3122; first compound 0.2 µM) was 0.891 and the relative viability (NCI-H3122; first compound 0.6325 µM) was 1.03. The relative viability (NCI-H3122; first compound 2 µM) was 1.03, the relative viability (NCI-H3122; first compound 6.325 µM) was 0.683 and the relative viability (NCI-H3122; first compound 20 µM) was 0.64. The relative viability (NCI-H441; first compound 0.2 µM) was 1.17, the relative viability (NCI-H441; first compound 2 µM) was 1.01 and the relative viability (NCI-H441; first compound 6.325 µM) was 0.617. For the same compound, the relative viability (NCI-H441; first compound 20 µM) was 0.256, the relative viability (NCI-H596; first compound 0.2 µM) was 0.886 and the relative viability (NCI-H596; first compound 0.6325 µM) was 0.741. For the same compound, the relative viability (NCI-H596; first compound 2 µM) was 0.858, the relative viability (NCI-H596; first compound 6.325 µM) was 0.848 and the relative viability (NCI-H596; first compound 20 µM) was 0.636. For the same compound, the relative viability (NCI-H661; first compound 0.2 µM) was 0.933, the relative viability (NCI-H661; first compound 0.6325 µM) was 1 and the relative viability (NCI-H661; first compound 2 µM) was 0.939. For the same compound, the relative viability (NCI-H661; first compound 6.325 µM) was 0.75, the relative viability (NCI-H661; first compound 20 µM) was 0.355 and the relative viability (PC-14; first compound 0.2 µM) was 0.931. For the same compound, the relative viability (PC-14; first compound 0.6325 µM) was 0.942, the relative viability (PC-14; first compound 2 µM) was 0.908 and the relative viability (PC-14; first compound 6.325 µM) was 0.784. For the same compound, the relative viability (PC-14; first compound 20 µM) was 0.629.
